These results are taken from the supplement of paper PMC10307832.

What all share (assay): relative viability (nuclei count vs DMSO), 5 days (fraction); higher = more cells survive
Compound in the experiment “Everolimus + AZD7762”: CO[C@H]1C[C@@H]2CC[C@@H](C)[C@@](O)(O2)C(=O)C(=O)N2CCCC[C@H]2C(=O)O[C@H]([C@H](C)C[C@@H]2CC[C@@H](OCCO)[C@H](OC)C2)CC(=O)[C@H](C)/C=C(\C)[C@@H](O)[C@@H](OC)C(=O)[C@H](C)C[C@H](C)/C=C/C=C/C=C/1C [Everolimus] + NC(=O)Nc1cc(-c2cccc(F)c2)sc1C(=O)N[C@H]1CCCNC1 [AZD7762] (partner 0.2 µM)
The method, boiled down:
(§1)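 One day after seeding in 1536-well plates, lung cancer cell lines were dosed by pin tool. Dosing was either single-drug or a fixed anchor-drug dose plus five library-drug doses (not always all listed) in √10 steps. After 5 days, nuclei were stained in one fix-and-stain step and counted on 4× images, and relative viability is the nuclei count of treated wells over that of vehicle wells, given as the median of duplicate plates.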

Compound in the experiment “Everolimus + Pictilisib”: CO[C@H]1C[C@@H]2CC[C@@H](C)[C@@](O)(O2)C(=O)C(=O)N2CCCC[C@H]2C(=O)O[C@H]([C@H](C)C[C@@H]2CC[C@@H](OCCO)[C@H](OC)C2)CC(=O)[C@H](C)/C=C(\C)[C@@H](O)[C@@H](OC)C(=O)[C@H](C)C[C@H](C)/C=C/C=C/C=C/1C [Everolimus] + CS(=O)(=O)N1CCN(Cc2cc3nc(-c4cccc5[nH]ncc45)nc(N4CCOCC4)c3s2)CC1 [Pictilisib] (partner 1 µM)
The method, boiled down:
as §1

Compound in the experiment “Everolimus + Foretinib”: CO[C@H]1C[C@@H]2CC[C@@H](C)[C@@](O)(O2)C(=O)C(=O)N2CCCC[C@H]2C(=O)O[C@H]([C@H](C)C[C@@H]2CC[C@@H](OCCO)[C@H](OC)C2)CC(=O)[C@H](C)/C=C(\C)[C@@H](O)[C@@H](OC)C(=O)[C@H](C)C[C@H](C)/C=C/C=C/C=C/1C [Everolimus] + COc1cc2c(Oc3ccc(NC(=O)C4(C(=O)Nc5ccc(F)cc5)CC4)cc3F)ccnc2cc1OCCCN1CCOCC1 [Foretinib] (partner 0.25 µM)
Put shortly: as §1

Compound in the experiment “Everolimus + Vorinostat”: CO[C@H]1C[C@@H]2CC[C@@H](C)[C@@](O)(O2)C(=O)C(=O)N2CCCC[C@H]2C(=O)O[C@H]([C@H](C)C[C@@H]2CC[C@@H](OCCO)[C@H](OC)C2)CC(=O)[C@H](C)/C=C(\C)[C@@H](O)[C@@H](OC)C(=O)[C@H](C)C[C@H](C)/C=C/C=C/C=C/1C [Everolimus] + O=C(CCCCCCC(=O)Nc1ccccc1)NO [Vorinostat] (partner 1 µM)
The method, boiled down:
as §1

NCI-H1915: the relative viability with Everolimus + AZD7762 (first compound 0.01 µM) amounted to 0.632; in the experiment with Everolimus + AZD7762 (first compound 0.03162 µM), 0.567; with Everolimus + AZD7762 (first compound 0.1 µM), 0.561; in the experiment with Everolimus + AZD7762 (first compound 0.3162 µM) it was 0.587; with Everolimus + AZD7762 (first compound 1 µM) it was 0.554; in the experiment with Everolimus + Pictilisib (first compound 0.01 µM), 0.622. Besides, the relative viability with Everolimus + Pictilisib (first compound 0.03162 µM) was 0.33; with Everolimus + Pictilisib (first compound 0.1 µM), 0.493; in the experiment with Everolimus + Pictilisib (first compound 0.3162 µM), 0.625; in the experiment with Everolimus + Pictilisib (first compound 1 µM) it was 0.555; with Everolimus + Foretinib (first compound 0.01 µM) it was 1.04; with Everolimus + Foretinib (first compound 0.03162 µM) it was 0.975. Moreover, the relative viability in the experiment with Everolimus + Foretinib (first compound 0.1 µM) is 0.838; in the experiment with Everolimus + Foretinib (first compound 0.3162 µM) it was 0.972; with Everolimus + Foretinib (first compound 1 µM), 0.79; in the experiment with Everolimus + Vorinostat (first compound 0.01 µM), 0.389; with Everolimus + Vorinostat (first compound 0.03162 µM), 0.387; in the experiment with Everolimus + Vorinostat (first compound 0.1 µM), 0.431. The relative viability was 0.37 with Everolimus + Vorinostat (first compound 0.3162 µM) and 0.364 with Everolimus + Vorinostat (first compound 1 µM).
Turning to RERF-LC-KJ, the relative viability in the experiment with Everolimus + AZD7762 (first compound 0.01 µM) worked out at 0.566; with Everolimus + AZD7762 (first compound 0.03162 µM) it was 0.415; with Everolimus + AZD7762 (first compound 0.1 µM) it was 0.462; in the experiment with Everolimus + AZD7762 (first compound 0.3162 µM), 0.507; with Everolimus + AZD7762 (first compound 1 µM), 0.598; with Everolimus + Pictilisib (first compound 0.01 µM), 0.345. The relative viability is 0.445 with Everolimus + Pictilisib (first compound 0.03162 µM); 0.214 with Everolimus + Pictilisib (first compound 0.1 µM); 0.409 with Everolimus + Pictilisib (first compound 0.3162 µM); 0.238 in the experiment with Everolimus + Pictilisib (first compound 1 µM); 0.686 with Everolimus + Foretinib (first compound 0.01 µM); 0.694 in the experiment with Everolimus + Foretinib (first compound 0.03162 µM). Moreover, the relative viability came out at 0.578 in the experiment with Everolimus + Foretinib (first compound 0.1 µM); 0.539 in the experiment with Everolimus + Foretinib (first compound 0.3162 µM); 0.559 in the experiment with Everolimus + Foretinib (first compound 1 µM); 0.552 with Everolimus + Vorinostat (first compound 0.01 µM); 0.461 in the experiment with Everolimus + Vorinostat (first compound 0.03162 µM); 0.446 with Everolimus + Vorinostat (first compound 0.1 µM). Besides, the relative viability in the experiment with Everolimus + Vorinostat (first compound 0.3162 µM) turned out to be 0.478; with Everolimus + Vorinostat (first compound 1 µM) it was 0.49.
In the case of LOU-NH91, the relative viability is 0.651 with Everolimus + AZD7762 (first compound 0.01 µM); 0.654 in the experiment with Everolimus + AZD7762 (first compound 0.03162 µM); 0.621 with Everolimus + AZD7762 (first compound 0.1 µM); 0.645 in the experiment with Everolimus + AZD7762 (first compound 0.3162 µM); 0.647 with Everolimus + AZD7762 (first compound 1 µM); 0.516 in the experiment with Everolimus + Pictilisib (first compound 0.01 µM). For the same cell line, the relative viability stood at 0.484 with Everolimus + Pictilisib (first compound 0.03162 µM); 0.462 with Everolimus + Pictilisib (first compound 0.1 µM); 0.485 in the experiment with Everolimus + Pictilisib (first compound 0.3162 µM); 0.465 in the experiment with Everolimus + Pictilisib (first compound 1 µM); 0.853 with Everolimus + Foretinib (first compound 0.01 µM); 0.793 with Everolimus + Foretinib (first compound 0.03162 µM). The relative viability with Everolimus + Foretinib (first compound 0.1 µM) is 0.712; with Everolimus + Foretinib (first compound 0.3162 µM) it was 0.746; with Everolimus + Foretinib (first compound 1 µM) it was 0.691; in the experiment with Everolimus + Vorinostat (first compound 0.01 µM), 0.809; in the experiment with Everolimus + Vorinostat (first compound 0.03162 µM), 0.653; with Everolimus + Vorinostat (first compound 0.1 µM), 0.744. For the same cell line, the relative viability in the experiment with Everolimus + Vorinostat (first compound 0.3162 µM) worked out at 0.727; with Everolimus + Vorinostat (first compound 1 µM), 0.764.
As for NCI-H2347, the relative viability with Everolimus + AZD7762 (first compound 0.01 µM) amounted to 0.651; in the experiment with Everolimus + AZD7762 (first compound 0.03162 µM), 0.618; in the experiment with Everolimus + AZD7762 (first compound 0.1 µM) it was 0.576; in the experiment with Everolimus + AZD7762 (first compound 0.3162 µM) it was 0.622; in the experiment with Everolimus + AZD7762 (first compound 1 µM) it was 0.439; with Everolimus + Pictilisib (first compound 0.01 µM) it was 0.288. In addition, the relative viability with Everolimus + Pictilisib (first compound 0.03162 µM) was found to be 0.281; with Everolimus + Pictilisib (first compound 0.1 µM) it was 0.4; with Everolimus + Pictilisib (first compound 0.3162 µM), 0.368; with Everolimus + Pictilisib (first compound 1 µM), 0.358; with Everolimus + Foretinib (first compound 0.01 µM), 0.855; with Everolimus + Foretinib (first compound 0.03162 µM), 0.499. The relative viability with Everolimus + Foretinib (first compound 0.1 µM) came out at 0.511; in the experiment with Everolimus + Foretinib (first compound 0.3162 µM) it was 0.684; with Everolimus + Foretinib (first compound 1 µM), 0.552; with Everolimus + Vorinostat (first compound 0.01 µM), 0.565; with Everolimus + Vorinostat (first compound 0.03162 µM), 0.556; with Everolimus + Vorinostat (first compound 0.1 µM) it was 0.455. Moreover, the relative viability turned out to be 0.419 with Everolimus + Vorinostat (first compound 0.3162 µM) and 0.551 with Everolimus + Vorinostat (first compound 1 µM).
Regarding NCI-H2126, the relative viability turned out to be 0.688 with Everolimus + AZD7762 (first compound 0.01 µM); 0.598 with Everolimus + AZD7762 (first compound 0.03162 µM); 0.629 with Everolimus + AZD7762 (first compound 0.1 µM); 0.688 with Everolimus + AZD7762 (first compound 0.3162 µM); 0.703 with Everolimus + AZD7762 (first compound 1 µM); 0.373 with Everolimus + Pictilisib (first compound 0.01 µM). Also, the relative viability was 0.34 in the experiment with Everolimus + Pictilisib (first compound 0.03162 µM); 0.359 with Everolimus + Pictilisib (first compound 0.1 µM); 0.392 with Everolimus + Pictilisib (first compound 0.3162 µM); 0.409 with Everolimus + Pictilisib (first compound 1 µM); 0.97 with Everolimus + Foretinib (first compound 0.01 µM); 0.925 in the experiment with Everolimus + Foretinib (first compound 0.03162 µM). Besides, the relative viability with Everolimus + Foretinib (first compound 0.1 µM) came out at 0.892; in the experiment with Everolimus + Foretinib (first compound 0.3162 µM) it was 0.772; in the experiment with Everolimus + Foretinib (first compound 1 µM), 0.73; with Everolimus + Vorinostat (first compound 0.01 µM) it was 0.546; with Everolimus + Vorinostat (first compound 0.03162 µM), 0.482; with Everolimus + Vorinostat (first compound 0.1 µM), 0.407. Also, the relative viability with Everolimus + Vorinostat (first compound 0.3162 µM) stood at 0.553; in the experiment with Everolimus + Vorinostat (first compound 1 µM), 0.497.
In the case of HCC-827, the relative viability with Everolimus + AZD7762 (first compound 0.01 µM) is 0.188; in the experiment with Everolimus + AZD7762 (first compound 0.03162 µM), 0.164; with Everolimus + AZD7762 (first compound 0.1 µM) it was 0.185; with Everolimus + AZD7762 (first compound 0.3162 µM), 0.193; in the experiment with Everolimus + AZD7762 (first compound 1 µM), 0.163; in the experiment with Everolimus + Pictilisib (first compound 0.01 µM) it was 0.957. Besides, the relative viability with Everolimus + Pictilisib (first compound 0.03162 µM) turned out to be 0.875; in the experiment with Everolimus + Pictilisib (first compound 0.1 µM) it was 0.781; with Everolimus + Pictilisib (first compound 0.3162 µM), 0.863; with Everolimus + Pictilisib (first compound 1 µM), 0.611; with Everolimus + Foretinib (first compound 0.01 µM), 0.929; with Everolimus + Foretinib (first compound 0.03162 µM) it was 0.982. Also, the relative viability was 0.906 with Everolimus + Foretinib (first compound 0.1 µM); 0.828 with Everolimus + Foretinib (first compound 0.3162 µM); 0.771 in the experiment with Everolimus + Foretinib (first compound 1 µM); 0.643 in the experiment with Everolimus + Vorinostat (first compound 0.01 µM); 0.578 in the experiment with Everolimus + Vorinostat (first compound 0.03162 µM); 0.709 with Everolimus + Vorinostat (first compound 0.1 µM). Besides, the relative viability with Everolimus + Vorinostat (first compound 0.3162 µM) came out at 0.827; with Everolimus + Vorinostat (first compound 1 µM) it was 0.794.
Consider NCI-H3122, for which the relative viability in the experiment with Everolimus + AZD7762 (first compound 0.01 µM) was determined as 0.75; with Everolimus + AZD7762 (first compound 0.03162 µM) it was 0.765; with Everolimus + AZD7762 (first compound 0.1 µM), 0.711; in the experiment with Everolimus + AZD7762 (first compound 0.3162 µM), 0.629; with Everolimus + AZD7762 (first compound 1 µM) it was 0.725; in the experiment with Everolimus + Pictilisib (first compound 0.01 µM) it was 0.364. The relative viability in the experiment with Everolimus + Pictilisib (first compound 0.03162 µM) is 0.421; with Everolimus + Pictilisib (first compound 0.1 µM), 0.288; in the experiment with Everolimus + Pictilisib (first compound 0.3162 µM), 0.372; with Everolimus + Pictilisib (first compound 1 µM), 0.348; with Everolimus + Foretinib (first compound 0.01 µM), 0.818; with Everolimus + Foretinib (first compound 0.03162 µM) it was 0.621. The relative viability came to 0.351 with Everolimus + Foretinib (first compound 0.1 µM); 0.494 in the experiment with Everolimus + Foretinib (first compound 0.3162 µM); 0.801 with Everolimus + Foretinib (first compound 1 µM); 0.678 with Everolimus + Vorinostat (first compound 0.01 µM); 0.598 with Everolimus + Vorinostat (first compound 0.03162 µM); 0.607 in the experiment with Everolimus + Vorinostat (first compound 0.1 µM). In addition, the relative viability in the experiment with Everolimus + Vorinostat (first compound 0.3162 µM) was determined as 0.369; with Everolimus + Vorinostat (first compound 1 µM) it was 0.669.
